Results taken from patent publication US5854252A, “Dihalotriazolopyrimidine derivatives” (Shell Internationale Research Maatschappij B.V., priority 1993, dated 1998).
Converted amounts (≈) assume the structure as drawn.

Tests used:
Plasmopara viticola = assay: Direct protectant activity against vine downy mildew (PVP), Example 53(c); format: in vivo; conditions: protectant foliar spray, 1000 ppm
Method: The test is a direct protectant one using a foliar spray. The lower surface of leaves of whole vine plants (cv Cabernet Sauvignon) are sprayed with the test compound at a dosage of 1000 ppm using an automated sprayline as described under (a), and after a subsequent period of 24 hours under normal glasshouse conditions the lower surfaces of the leaves are inoculated by spraying with an aqueous suspension containing 2.5×10^4 zoosporangia/ml. The inoculated plants are kept for 24 hours in a high humidity cabinet, 5 days under normal glasshouse conditions and then returned for a further 24 hours to high humidity. Assessment is based on the percentage of leaf area covered by sporulation compared with that on control leaves. The extent of disease control in all the above tests is expressed as a rating compared with either an untreated control or a diluent-sprayed-control, according to the criteria: […]

[1] = system: Pseudocercosporella herpotrichoides; assay: Activity against wheat eyespot in-vitro (PHI), Example 53(j); format: cell-based; conditions: 50 ppm, 12 days at 20° C.
Method: This test measures the in vitro activity of compounds against the fungus causing wheat eyespot. The test compound is dissolved or suspended in acetone and is added into 4 ml aliquots of half strength Potato Dextrose Broth dispensed in 25-compartment petri dishes to give a final concentration of 50 ppm compound and 2.5% acetone. Each compartment is inoculated with a 6 mm diameter plug of agar/mycelium taken from a 14 day old culture of P. herpotrichoides. Plates are incubated at 20° C. for 12 days until the assessment of mycelial growth. The extent of disease control in all the above tests is expressed as a rating compared with either an untreated control or a diluent-sprayed-control, according to the criteria: […]

Cercospora arachidicola = assay: Field pot test with Cercospora arachidicola on peanuts; format: in vivo; conditions: Mycosphaerella arachidis, topical, 360 h, 500 μg/ml spray, 1000 l/ha, 15 days after treatment, Abbott formula, read-out: % efficacy Cercospora arachidicola
Method: 15 Seeds of peanuts were sown in pots filled with a soil substrate. When the plants have developed 4 true leaves (approx. 12-14 days after seeding) the fungicides and the test compounds were applied using a hand sprayer. The test compounds were applied at a concentration of 500 μg/ml in a […] containing 10% acetone and 0.05% Triton X 155 in water. The total amount of […] corresponded to 1000 l/ha. Six replicates (pots) per treatment were used. 2 days after treatment the pots were exposed to peanut plants in the field on which the fungus, Cercospora arachidicola, had formed sporulating lesions. The assessment was carried out 15 days after treatment by estimating the percentage of infected leaf area. The % efficacy was calculated using the Abbott formula.

Puccinia arachidis = assay: Field pot test with Puccinia arachidis on peanuts; format: in vivo; conditions: topical, 456 h, 500 μg/ml spray, 1000 l/ha, 19 days after treatment, Abbott formula, read-out: % efficacy Puccinia arachidis
Method: 15 seeds of peanuts were sown in pots filled with a soil substrate. When the plants have developed 4 true leaves the fungicides and the test compounds were applied using a hand sprayer. The test compounds were applied at a concentration of 500 μg/ml in a […] containing 10% acetone and 0.05% Triton X 155 in water. The total amount of […] corresponded to 1000 l/ha. Six replicates per treatment were used. 2 Days after treatment the pots were exposed to peanut plants in the field on which the fungus, Puccinia arachidis, had formed sporulating pustules on the leaves. The assessment was carried out 19 days after treatment by estimating the percentage of infected leaf area. The % efficacy was calculated using the Abbott formula.

Leptosphaeria nodorum = assay: Activity against wheat leafspot (LN), Example 53(f); format: in vivo; conditions: therapeutic foliar spray, 1000 ppm
Method: The test is a direct therapeutic one, using a foliar spray. Leaves of wheat plants (cv Norman), at the single leaf stage, are inoculated by spraying with an aqueous suspension containing 1×10^6 spores/ml. The inoculated plants are kept for 24 hours in a high humidity compartment prior to treatment. The plants are sprayed with a solution of the test compound at a dosage of 1000 ppm using an automated sprayline as described under (a). After drying, the plants are kept for 6-8 days at 22° C. and moderate humidity, followed by assessment. Assessment is based on the density of lesions per leaf compared with that on leaves of control plants. The extent of disease control in all the above tests is expressed as a rating compared with either an untreated control or a diluent-sprayed-control, according to the criteria: […]

Gaeumannomyces graminis = assay: MIC by serial dilution, Example 55, Gaeumannomyces graminis; format: cell-based; conditions: microtitre plates, 20° C., 6-8 days
Method: (§1) The MIC (Minimum Inhibition Concentration)-values were determined by serial dilution tests using 48-well microtitre plates. The dilution of the test compounds in the nutrient solution and the distribution to the wells were carried out by a TECAN RSP 5000 robotic sample processor.
(§2) For preparation of the nutrient solution, V8 juice (Trade Mark) was neutralised with calcium carbonate and centrifuged. The supernatant was diluted with distilled water (1:5) to the final concentration.
(§3) The fungi (Alternaria solani, Botrytis cinerea, Pseudocercosporella herpotrichoides, Micronectriella nivalis, Gaeumannomyces graminis) were added into the wells as a droplet of spore suspension. The microtitre plates were then incubated at 20° C. for 6-8 days. The MIC-value, which was defined to be the lowest concentration in the dilution series without mycelial growth, was determined by visual inspection of the plates.

Micronectriella nivalis = assay: MIC by serial dilution, Example 55, Micronectriella nivalis; format: cell-based; conditions: microtitre plates, 20° C., 6-8 days
Method: as §1, §2, §3

[2] = system: Pseudocercosporella herpotrichoides; assay: MIC by serial dilution, Example 55, Pseudocercosporella herpotrichoides; format: cell-based; conditions: Oculimacula yallundae; microtitre plates, 20° C., 6-8 days
Method: as §1, §2, §3

Rhizoctonia solani = assay: MIC in the serial dilution test, Example 56, Rhizoctonia solani; format: cell-based; conditions: microtiter serial dilution, 6-12 days
Method: (§4) The serial dilution test was carried out using Microtiter test with 24 or 48 wells per plate. The test compounds were used a 1000 μg/ml aqueous stock suspension containing 20% acetone which was then sterile filtered in a 0.2μ filter. The dilution of the sterile fungicide suspension with the nutrient solution and the subsequent pipetting into the different wells was carried out using a TECAN RSP 5000 Robotic Sample Processor. The concentrations tested ranged from 100 μg/ml down to 0.05 μg/ml. 12 Dilution steps were made. The nutrient solution was chosen according to the nutrient requirements of the pathogen. The inoculum was added as a droplet (50 μl) of a spore suspension (5×10^8 /ml) into the wells. After 6-12 days incubation at suitable temperatures, the MIC value was determined by visual estimation. The lowest concentration in the dilution row without mycelial growth was defined as the MIC value.

Alternaria solani [3] = assay: MIC in the serial dilution test, Example 56, Alternaria solani; format: cell-based; conditions: microtiter serial dilution, 6-12 days
Method: as §4

Botrytis cinerea [4] = assay: MIC in the serial dilution test, Example 56, Botrytis cinerea; format: cell-based; conditions: microtiter serial dilution, 6-12 days
Method: as §4

Alternaria solani [5] = assay: MIC by serial dilution, Example 55, Alternaria solani; format: cell-based; conditions: microtitre plates, 20° C., 6-8 days
Method: as §1, §2, §3

Botrytis cinerea [6] = assay: MIC by serial dilution, Example 55, Botrytis cinerea; format: cell-based; conditions: microtitre plates, 20° C., 6-8 days
Method: as §1, §2, §3

Row | SMILES | MIC (Gaeumannomyces graminis) [µg/mL] | MIC (Micronectriella nivalis) [µg/mL] | MIC [2] [µg/mL] | Fungicidal Activity PHI (disease control rating) [1] | also measured
1 | COc1cccc(-c2c(Cl)nc3ncnn3c2Cl)c1 [Example 4] | – | – | – | 2 (greater than 80% disease control) | Fungicidal Activity PVP (disease control rating) (Plasmopara viticola): 1 (about 50-80% disease control)
2 | FC(F)(F)c1cccc(-c2c(Cl)nc3ncnn3c2Cl)c1 [Example 7] | – | – | – | 2 (greater than 80% disease control) | pest or weed control at 500 µg/mL (Cercospora arachidicola): 58%; pest or weed control at 500 µg/mL (Puccinia arachidis): 25%
3 | CCOc1cccc(-c2c(Cl)nc3ncnn3c2Cl)c1OCC [Example 24] | – | – | – | 2 (greater than 80% disease control) | Fungicidal Activity LN (disease control rating) (Leptosphaeria nodorum): 1 (about 50-80% disease control)
4 | COc1cccc(-c2c(Cl)nc3ncnn3c2Cl)c1OC [Example 21] | – | – | – | 2 (greater than 80% disease control) | –
5 | CC(C)c1c(Cl)nc2ncnn2c1Cl [Example 51] | – | – | – | – | MIC (Rhizoctonia solani): 25 µg/mL (≈ 108 µM); MIC (Alternaria solani [3]): 12.5 µg/mL (≈ 54.1 µM); MIC (Botrytis cinerea [4]): 12.5 µg/mL (≈ 54.1 µM)
6 | Clc1nc2ncnn2c(Cl)c1-c1ccccc1Br [Example 18] | – | – | – | 2 (greater than 80% disease control) | –
7 | Fc1cccc(-c2c(Br)nc3ncnn3c2Br)c1 [Example 43] | – | – | – | – | MIC (Alternaria solani [5]): > 100 µg/mL; MIC (Botrytis cinerea [6]): > 100 µg/mL
8 | CCOc1c(Cl)nc2ncnn2c1Cl [Example 50] | – | – | – | – | MIC (Rhizoctonia solani): 100 µg/mL (≈ 429 µM); MIC (Alternaria solani [3]): 12.5 µg/mL (≈ 53.6 µM); MIC (Botrytis cinerea [4]): 25 µg/mL (≈ 107 µM)
9 | COc1ccccc1-c1c(Cl)nc2ncnn2c1Cl [Example 5] | – | – | – | 2 (greater than 80% disease control) | Fungicidal Activity PVP (disease control rating) (Plasmopara viticola): 2 (greater than 80% disease control)
10 | FC(F)(F)c1ccccc1-c1c(Br)nc2ncnn2c1Br [Example 44] | – | – | – | – | MIC (Alternaria solani [5]): > 100 µg/mL; MIC (Botrytis cinerea [6]): > 100 µg/mL
11 | Clc1nc2ncnn2c(Cl)c1-c1ccc(OCc2ccccc2)cc1 [Example 15] | – | – | – | – | Fungicidal Activity LN (disease control rating) (Leptosphaeria nodorum): 1 (about 50-80% disease control)

Now from value to compound, other results behind:

Row | MIC (Gaeumannomyces graminis) [µg/mL] | MIC (Micronectriella nivalis) [µg/mL] | MIC [2] [µg/mL] | SMILES | Fungicidal Activity PHI (disease control rating) [1] | also measured
12 | 0.1 (≈ 0.286 µM) | 0.78 (≈ 2.23 µM) | 12.5 (≈ 35.8 µM) | FC(F)(F)Oc1ccc(-c2c(Cl)nc3ncnn3c2Cl)cc1 [Example 9] | 2 (greater than 80% disease control) | pest or weed control at 500 µg/mL (Cercospora arachidicola): 50%; pest or weed control at 500 µg/mL (Puccinia arachidis): 25%
13 | 0.78 (≈ 2.66 µM) | 3.13 (≈ 10.7 µM) | 12.5 (≈ 42.6 µM) | Cc1ccc(-c2c(Cl)nc3ncnn3c2Cl)cc1C [Example 31] | – | –
14 | 0.78 (≈ 2.76 µM) | 12.5 (≈ 44.2 µM) | 25 (≈ 88.3 µM) | Fc1cccc(-c2c(Cl)nc3ncnn3c2Cl)c1 [Example 17] | 2 (greater than 80% disease control) | –
15 | 0.78 (≈ 2.4 µM) | 6.25 (≈ 19.2 µM) | 25 (≈ 76.9 µM) | COc1ccc(-c2c(Cl)nc3ncnn3c2Cl)cc1OC [Example 14] | 2 (greater than 80% disease control) | –
16 | 3.13 (≈ 10.4 µM) | 1.56 (≈ 5.21 µM) | 25 (≈ 83.5 µM) | Clc1ccccc1-c1c(Cl)nc2ncnn2c1Cl [Example 1, 5,7-dichloro-6-(2-chlorophenyl)-1,2,4-triazolo-[1,5a]pyrimidine] | 2 (greater than 80% disease control) | –
